The structures appear in SMILES notation. Some results are limits rather than exact numbers.

The first test deals with androgen receptor (AR) in LNCaP and/or VCaP cells. Kind of test: Androgen Receptor ELISA assay (AR degradation). It is filed as cell-based. The settings on record: LNCaP and/or VCaP cells; 5 hours incubation; media with R1881; read-out: DC50 Code* (degradation of AR ELISA). Summed up: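 VCaP cells grown ≥3 days, then treated 5 h with compound in media containing 1 nM R1881 (10× stock). Cells lysed and AR quantified by sandwich ELISA (mouse AR detection Ab, HRP anti-mouse, TMB). DC50 and Dmax derived from AR degradation.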
For `COc1cc(O[C@H]2CC[C@H](NC(=O)c3cnc(N4CCC(CN(C(C)C)[C@H]5CC[C@H](Oc6ccc7c(c6)C(=O)N(C6CCC(=O)NC6=O)C7=O)CC5)CC4)cn3)CC2)ccc1C#N` (stereo partly shown) [Compound 31, N-((1r,4r)-4-(4-cyano-3-methoxyphenoxy)cyclohexyl)-5-(4-((((1r,4r)-4-((2-(2,6-dioxopiperidin-3-yl)-1,3-dioxoisoindolin-5-yl)oxy)cyclohexyl) (isopropyl)amino)methyl)piperidin-1-yl)pyrazine-2-carboxamide], the DC50 is under 1 nM.
Same read-out and setting: then `COc1cc(O[C@H]2CC[C@H](NC(=O)c3cnc(N4CC5(CC(CN(C(C)C)[C@H]6C[C@H](Oc7ccc8c(c7)C(=O)N(C7CCC(=O)NC7=O)C8=O)C6)C5)C4)nc3)CC2)ccc1C#N` (stereo partly shown) [Compound 36, N-((1r,4r)-4-(4-cyano-3-methoxyphenoxy)cyclohexyl)-2-(6-((((1r,3r)-3-((2-(2,6-dioxopiperidin-3-yl)-1,3-dioxoisoindolin-5-yl)oxy)cyclobutyl) (isopropyl)amino)methyl)-2-azaspiro[3.3]heptan-2-yl)pyrimidine-5-carboxamide], with under 1 nM; and `COCCN(CC1CCN(c2cnc(C(=O)N[C@H]3CC[C@H](Oc4ccc(C#N)c(OC)c4)CC3)cn2)CC1)[C@H]1C[C@H](Oc2ccc3c(c2)C(=O)N(C2CCC(=O)NC2=O)C3=O)C1` (stereo partly shown) [Compound 68, N-((1r,4r)-4-(4-cyano-3-methoxyphenoxy)cyclohexyl)-5-(4-((((1r,3r)-3-((2-(2,6-dioxopiperidin-3-yl)-1,3-dioxoisoindolin-5-yl)oxy)cyclobutyl)(2-methoxyethyl)amino)methyl)piperidin-1-yl)pyrazine-2-carboxamide], with under 1 nM; and `CC(C)Oc1cc(O[C@H]2C[C@H](N(CC3CCN(c4cnc(C(=O)N[C@H]5CC[C@H](Oc6ccc(C#N)c(Cl)c6)CC5)cn4)CC3)C(C)C)C2)cc2c1C(=O)N(C1CCC(=O)NC1=O)C2=O` (stereo partly shown) [Compound 44, N-((1r,4r)-4-(3-chloro-4-cyanophenoxy)cyclohexyl)-5-(4-((((1r,3r)-3-((2-(2,6-dioxopiperidin-3-yl)-7-isopropoxy-1,3-dioxoisoindolin-5-yl)oxy)cyclobutyl) (isopropyl)amino)methyl)piperidin-1-yl)pyrazine-2-carboxamide], with under 1 nM.
Consider `COc1cc(O[C@H]2CC[C@H](NC(=O)c3cnc(N4CCC(CN(C(C)C)[C@H]5C[C@H](Oc6ccc7c(c6)C(=O)N(C6CCC(=O)NC6=O)C7=O)C5)CC4)cn3)C2)ccc1C#N` (stereo partly drawn) [Compound 7, N-((1S,3S)-3-(4-cyano-3-methoxyphenoxy)cyclopentyl)-5-(4-((((1r,3S)-3-((2-(2,6-dioxopiperidin-3-yl)-1,3-dioxoisoindolin-5-yl)oxy)cyclobutyl) (isopropyl)amino)methyl)piperidin-1-yl)pyrazine-2-carboxamide], for which the DC50 is over 100 nM.

Still in this test, the particulars now being: degradation of AR ELISA in LNCaP and/or VCaP cells; Table 2C; read-out: DC50 Code*.
Regarding `Cc1cc(O[C@H]2C(C)(C)[C@H](NC(=O)c3ccc(N4CCC(CN(CCO)[C@H]5C[C@H](Oc6ccc7c(c6)C(=O)N(C6CCC(=O)NC6=O)C7=O)C5)CC4)cc3)C2(C)C)cc(C)c1C#N` (mixture of isomers) [compound 225, rac-N-((1r,3r)-3-(4-cyano-3,5-dimethylphenoxy)-2,2,4,4-tetramethylcyclobutyl)-4-(4-((((1r,3r)-3-((2-(2,6-dioxopiperidin-3-yl)-1,3-dioxoisoindolin-5-yl)oxy)cyclobutyl)(2-hydroxyethyl)amino)methyl)piperidin-1-yl)benzamide], the DC50 is under 1 nM.
Still for that read-out and setting: the value for `COc1cc(O[C@H]2C[C@H](N(CC(F)F)CC3CCN(c4ccc(C(=O)N[C@H]5C(C)(C)[C@H](Oc6ccc(C#N)c(Cl)c6)C5(C)C)cc4)CC3)C2)cc2c1C(=O)N(C1CCC(=O)NC1=O)C2=O` (stereo partly shown) [compound 136, N-((1r,3r)-3-(3-chloro-4-cyanophenoxy)-2,2,4,4-tetramethylcyclobutyl)-4-(4-(((2,2-difluoroethyl)((1r,3r)-3-((2-(2,6-dioxopiperidin-3-yl)-7-methoxy-1,3-dioxoisoindolin-5-yl)oxy)cyclobutyl)amino)methyl)piperidin-1-yl)benzamide] was 1 to 10 nM.
Still for that read-out and setting: the value for `COc1cc(O[C@H]2C(C)(C)[C@H](NC(=O)c3cnc(N4CC(CN(C(C)C)[C@H]5C[C@H](Oc6ccc7c(c6)C(=O)N(C6CCC(=O)NC6=O)C7=O)C5)C4)cn3)C2(C)C)ccc1C#N` (stereo partly shown) [compound 130, N-((1r,3r)-3-(4-cyano-3-methoxyphenoxy)-2,2,4,4-tetramethylcyclobutyl)-5-(3-((((1r,3r)-3-((2-(2,6-dioxopiperidin-3-yl)-1,3-dioxoisoindolin-5-yl)oxy)cyclobutyl) (isopropyl)amino)methyl)azetidin-1-yl)pyrazine-2-carboxamide] was 1 to 10 nM.
Still for that read-out and setting: then `COc1cc(O[C@H]2C(C)(C)[C@H](NC(=O)c3ccc(N4CC5(CC(CN(C(C)C)[C@H]6C[C@H](Oc7ccc8c(c7)C(=O)N(C7CCC(=O)NC7=O)C8=O)C6)C5)C4)cc3)C2(C)C)ccc1C#N` (mixture of isomers) [compound 216, rac-N-((1r,3r)-3-(4-cyano-3-methoxyphenoxy)-2,2,4,4-tetramethylcyclobutyl)-4-(6-((((1r,3r)-3-((2-(2,6-dioxopiperidin-3-yl)-1,3-dioxoisoindolin-5-yl)oxy)cyclobutyl) (isopropyl)amino)methyl)-2-azaspiro[3.3]heptan-2-yl)benzamide], with under 1 nM; and `COCCN(CC1CC2(C1)CN(c1ccc(C(=O)N[C@H]3C(C)(C)[C@H](Oc4ccc(C#N)c(OC)c4)C3(C)C)cc1)C2)[C@H]1C[C@H](Oc2ccc3c(c2)C(=O)N(C2CCC(=O)NC2=O)C3=O)C1` (mixture of isomers) [compound 190, rac-N-((1r,3r)-3-(4-cyano-3-methoxyphenoxy)-2,2,4,4-tetramethylcyclobutyl)-4-(6-((((1r,3r)-3-((2-(2,6-dioxopiperidin-3-yl)-1,3-dioxoisoindolin-5-yl)oxy)cyclobutyl)(2-methoxyethyl)amino)methyl)-2-azaspiro[3.3]heptan-2-yl)benzamide], with under 1 nM; and `Cc1cc(O[C@H]2C(C)(C)[C@H](NC(=O)c3ccc(CN4CCOC[C@@H]4CN4CCN(c5ccc6c(c5)C(=O)N(C5CCC(=O)NC5=O)C6=O)CC4)cc3)C2(C)C)cc(C)c1C#N` (stereo partly drawn) [compound 196, N-((1r,3S)-3-(4-cyano-3,5-dimethylphenoxy)-2,2,4,4-tetramethylcyclobutyl)-4-(((3S)-3-((4-(2-(2,6-dioxopiperidin-3-yl)-1,3-dioxoisoindolin-5-yl)piperazin-1-yl)methyl)morpholino)methyl)benzamide], with under 1 nM.
For `Cc1cc(O[C@H]2C(C)(C)[C@H](NC(=O)c3ncc(N4CCC(CN(C(C)C)[C@H]5C[C@H](Oc6ccc7c(c6)C(=O)N(C6CCC(=O)NC6=O)C7=O)C5)CC4)cn3)C2(C)C)cc(C)c1C#N` (stereo partly shown) [compound 132, N-((1r,3r)-3-(4-cyano-3,5-dimethylphenoxy)-2,2,4,4-tetramethylcyclobutyl)-5-(4-((((1r,3r)-3-((2-(2,6-dioxopiperidin-3-yl)-1,3-dioxoisoindolin-5-yl)oxy)cyclobutyl) (isopropyl)amino)methyl)piperidin-1-yl)pyrimidine-2-carboxamide], the DC50 was 1 to 10 nM.
In the case of `COCCN(CC1CCN(c2ccc(C(=O)N[C@H]3C(C)(C)[C@H](Oc4cc(C)c(C#N)c(C)c4)C3(C)C)cc2)CC1)[C@H]1C[C@H](Oc2cc3c(cc2OC)C(=O)N(C2CCC(=O)NC2=O)C3=O)C1` (mixture of isomers) [compound 170, rac-N-((1r,3r)-3-(4-cyano-3,5-dimethylphenoxy)-2,2,4,4-tetramethylcyclobutyl)-4-(4-((((1r,3r)-3-((2-(2,6-dioxopiperidin-3-yl)-6-methoxy-1,3-dioxoisoindolin-5-yl)oxy)cyclobutyl)(2-methoxyethyl)amino)methyl)piperidin-1-yl)benzamide], the DC50 is under 1 nM.
Still for that read-out and setting: the value for `Cc1cc(O[C@H]2C(C)(C)[C@H](NC(=O)c3ccc(N4CCC(OCCN(C)[C@H]5C[C@H](Oc6ccc7c(c6)C(=O)N(C6CCC(=O)NC6=O)C7=O)C5)CC4)cc3)C2(C)C)cc(C)c1C#N` (mixture of isomers) [compound 150, rac-N-((1r,3r)-3-(4-cyano-3,5-dimethylphenoxy)-2,2,4,4-tetramethylcyclobutyl)-4-(4-(2-(((1r,3r)-3-((2-(2,6-dioxopiperidin-3-yl)-1,3-dioxoisoindolin-5-yl)oxy)cyclobutyl) (methyl)amino)ethoxy)piperidin-1-yl)benzamide] was under 1 nM; that for `Cc1cc(O[C@H]2C(C)(C)[C@H](NC(=O)c3ccc(N4CCC(CN5CCOC[C@H]5COc5ccc6c(c5)C(=O)N(C5CCC(=O)NC5=O)C6=O)CC4)cc3)C2(C)C)cc(C)c1C#N` (stereo partly drawn) [compound 221, N-((1r,3S)-3-(4-cyano-3,5-dimethylphenoxy)-2,2,4,4-tetramethylcyclobutyl)-4-(4-(((3S)-3-(((2-(2,6-dioxopiperidin-3-yl)-1,3-dioxoisoindolin-5-yl)oxy)methyl)morpholino)methyl)piperidin-1-yl)benzamide] was under 1 nM; that for `CC(C)N(CC1CCN(c2ncc(C(=O)N[C@H]3C(C)(C)[C@H](Oc4ccc(C#N)c(Cl)c4)C3(C)C)cn2)CC1)[C@H]1C[C@H](Oc2ccc3c(c2)C(=O)N(C2CCC(=O)NC2=O)C3)C1` (stereo partly shown) [compound 95, N-((1r,3r)-3-(3-chloro-4-cyanophenoxy)-2,2,4,4-tetramethylcyclobutyl)-2-(4-((((1r,3r)-3-((2-(2,6-dioxopiperidin-3-yl)-3-oxoisoindolin-5-yl)oxy)cyclobutyl) (isopropyl)amino)methyl)piperidin-1-yl)pyrimidine-5-carboxamide] was under 1 nM.

A word on the DC50: it is the midpoint of the concentration-degradation curve.
